According to ChEMBL document CHEMBL3886685, “Nitrogen-containing bicyclic aromatic heterocyclic compound” (2016):

These compounds were tested against Cathepsin S (Homo sapiens, UniProt P25774) (assay: Inhibition Assay: 5 μL of a human cathepsin S enzyme (R&D1183-CY-010) was added to a 96-well plate so as to be 20 ng/well. Next, 10-fold dilution of the test compound (a 10 mM DMSO solution) was serially performed with a buffer solution for assay (a solution of 50 mM […], 250 mM sodium chloride and 5 mM dithiothreitol (DTT), adjusted to pH=4.5 with 1 N hydrochloric acid) six times such that the final concentration becomes 0.1 nM to 10 μM then, 20 μL of each of the solutions was added to the wells (the final DMSO concentration was 0.1%), and 25 μL of synthetic substrate VVR-AMC (3211-V manufactured by PEPTIDE […], INC.) was added thereto such that the final concentration becomes 40 μM, thereby starting a enzyme reaction. A fluorescence intensity (an excitation wavelength: 380 nm and a fluorescent wavelength: 460 nm) was measured at 37° C. for 10 minutes immediately after the start of the reaction using a fluorescence spectrophotometer (SPECTRA MAX GEMINI, manu).
Chain of Cathepsin S (P25774 whole entry): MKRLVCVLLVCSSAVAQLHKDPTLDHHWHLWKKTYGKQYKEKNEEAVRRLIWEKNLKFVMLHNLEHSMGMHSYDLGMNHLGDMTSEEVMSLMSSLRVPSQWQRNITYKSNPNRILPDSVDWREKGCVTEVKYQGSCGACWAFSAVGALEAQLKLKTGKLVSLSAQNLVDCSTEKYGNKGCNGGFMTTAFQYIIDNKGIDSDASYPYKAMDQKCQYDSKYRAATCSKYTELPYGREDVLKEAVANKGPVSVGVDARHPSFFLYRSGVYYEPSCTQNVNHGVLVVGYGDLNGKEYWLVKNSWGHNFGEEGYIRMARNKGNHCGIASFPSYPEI

Compound	IC50 [nM]
CN1CCC[C@H]1C(=O)N1CCC(CCOc2ncc(-c3nc(C#N)nc4c3ccn4C)cc2C(F)(F)F)CC1	4.8
Cn1ccc2c(-c3ccc(OCC4CNC4)c(C(F)(F)F)c3)nc(C#N)nc21	4.5
CCN1CCC(CCOc2ccc(-c3nc(C#N)nc4c3ccn4CC(N)=O)cc2C(F)(F)F)CC1	2
Cn1cnc2c(-c3ccc(OCCC4CCN(CC(=O)N5CCC(F)(F)C5)CC4)c(C(F)(F)F)c3)nc(C#N)nc21	2.4
Cc1nnc(CN2CCC(CCOc3ccc(-c4nc(C#N)nc5c4ncn5C)cc3C(F)(F)F)CC2)o1	2.3
CCN1CCC(C)(COc2ccc(-c3nc(C#N)nc4c3ccn4C)cc2C(F)(F)F)CC1	3.8
CCN1CCC(CCOc2ccc(-c3nc(C#N)nc4c3ncn4CC3CCOC3)cc2C(F)(F)F)CC1 (centres undefined)	2.2
N#Cc1nc(-c2cnc(OCCC3CCNCC3)c(C(F)(F)F)c2)c2ccn(CC3CCOCC3)c2n1	3.5
CN(C)C(=O)CN1CCC(CCOc2ncc(-c3nc(C#N)nc4c3ccn4C)cc2C(F)(F)F)CC1	2.2
CN1CCC[C@@H]1C(=O)N1CCC(CCOc2ncc(-c3nc(C#N)nc4c3ncn4C)cc2C(F)(F)F)CC1	1
CC(C)N1CCC(CCOc2ccc(-c3nc(C#N)nc4c3ccn4CC3CCOC3)cc2C#N)CC1 (centres undefined)	4.3
CN1C[C@@H](O)C[C@H]1C(=O)N1CCC(CCOc2ccc(-c3nc(C#N)nc4c3ncn4C)cc2C(F)(F)F)CC1	2.3
CCN1CCC(CCOc2ncc(-c3nc(C#N)nc4c3ncn4CC3CCOC3)cc2C(F)(F)F)CC1 (centres undefined)	2
CN1CCC[C@H]1C(=O)N1CCC(CCOc2ccc(-c3nc(C#N)nc4c3ncn4C)cc2C(F)(F)F)CC1	3.5
CCn1ccc2c(-c3ccc(OCCC4CCNCC4)c(C(F)(F)F)c3)nc(C#N)nc21	3
CCN1CCC(CCOc2ncc(-c3nc(C#N)nc4c3ccn4CC3CCOC3)cc2C(F)(F)F)CC1 (centres undefined)	2.6
CN1CCC[C@H]1C(=O)N1CCC(CCOc2ccc(-c3nc(C#N)nc4c3ccn4C)cc2C(F)(F)F)C1 (some centres undefined)	2.3
CCN1CCC(CCOc2ccc(-c3nc(C#N)nc4c3ccn4C)cc2C(F)(F)F)C1 (centres undefined)	2.1
N#Cc1nc(-c2cnc(OCCC3CCNCC3)c(C(F)(F)F)c2)c2ccn(CC(=O)N3CCOCC3)c2n1	3.1
Cn1cnc2c(-c3ccc(OCCC4CCN(CC(=O)N5CCC(C#N)CC5)CC4)c(C(F)(F)F)c3)nc(C#N)nc21	2.1
Cn1cnc2c(-c3ccc(OCCC4CCN(CC(=O)N5CC[C@H](F)C5)CC4)c(C(F)(F)F)c3)nc(C#N)nc21	1.7

Compound	IC50 [nM]
CN1CCC(C(=O)N2CCC(CCOc3ccc(-c4nc(C#N)nc5c4ncn5C)cc3C(F)(F)F)CC2)CC1	2.7
Cn1cnc2c(-c3cc(F)c(OCCC4CCNCC4)c(C(F)(F)F)c3)nc(C#N)nc21	1.9
CCN1CC(COc2ccc(-c3nc(C#N)nc4c3ccn4C)cc2C(F)(F)F)C1	3.1
CCN1CCC(CCOc2ccc(-c3nc(C#N)nc4c3ccn4CC)cc2C(F)(F)F)CC1	3.7
CN1CCC[C@H]1C(=O)N1CCC(COc2ccc(-c3nc(C#N)nc4c3ccn4CC3CCOC3)cc2C(F)(F)F)CC1 (some centres undefined)	2.2
Cn1cnc2c(-c3ccc(OCCC4CCN(CC#N)CC4)c(C(F)(F)F)c3)nc(C#N)nc21	2.7
CCN1CCC(CCOc2ncc(-c3nc(C#N)nc4c3ncn4C)cc2C(F)(F)F)CC1	1
Cn1ccc2c(-c3ccc(SCCC4CCNCC4)c(C(F)(F)F)c3)nc(C#N)nc21	1.7
N#Cc1nc(-c2ccc(OCCC3CCN(CCO)CC3)c(C(F)(F)F)c2)c2ccn(CC3CCCO3)c2n1 (centres undefined)	3.2
N#Cc1nc(-c2ccc(OCC3CCNCC3)c(C(F)(F)F)c2)c2ccn(CC3CCOC3)c2n1 (centres undefined)	1.9
N#Cc1nc(-c2ccc(OCCC3CCNCC3)c(C(F)(F)F)c2)c2ccn(CC3CCOC3)c2n1 (centres undefined)	1.9
CN1CCC[C@H]1C(=O)N1CCC(CCOc2ncc(-c3nc(C#N)nc4c3ncn4C)cc2C(F)(F)F)CC1	3.1
Cn1cnc2c(-c3cnc(OCCC4CCN(C5CCC5)CC4)c(C(F)(F)F)c3)nc(C#N)nc21	2
N#Cc1nc(-c2ccc(OCCC3CCN(C(CF)CF)CC3)c(C#N)c2)c2ccn(CC3CCOC3)c2n1 (centres undefined)	8.9
CN1CCC[C@H]1C(=O)N1CCC(CCOc2ncc(-c3nc(C#N)nc4c3ncn4CC3CCOC3)cc2C(F)(F)F)CC1 (some centres undefined)	1.4
N#Cc1nc(-c2ccc(OCCC3CCNCC3)c(C(F)(F)F)c2)c2ccn(CC3CCCO3)c2n1 (centres undefined)	2.6
CN(C)C(=O)CN1CCC(CCOc2ccc(-c3nc(C#N)nc4c3ccn4CC3CCOC3)cc2C(F)(F)F)CC1 (centres undefined)	2.9
N#Cc1nc(-c2ccc(OCCC3CCNCC3)c(C(F)(F)F)c2)c2cc[nH]c2n1	2.2
CCN1CCC(CCOc2ncc(-c3nc(C#N)nc4c3ccn4CC3CCOCC3)cc2C(F)(F)F)CC1	3.2
N#Cc1nc(-c2ccc(OCCC3CCOCC3)c(C(F)(F)F)c2)c2ccn(CC(=O)N3CCC(CN4CCCC4)CC3)c2n1	2.5
Cn1ccc2c(-c3ccc(OCCC4CC5CCC(C4)N5)c(C(F)(F)F)c3)nc(C#N)nc21 (centres undefined)	3.6

Compound	IC50 [nM]
N#Cc1nc(-c2ccc(OCCC3CCNCC3)c(C#N)c2)c2ccn(CC3CCOC3)c2n1 (centres undefined)	3.3
CCN1CCC(CCOc2ccc(-c3nc(C#N)nc4c3ccn4CC3CCOC3)cc2C#N)CC1 (centres undefined)	2.7
CCN1CCC(CCOc2ccc(-c3nc(C#N)nc4c3ncn4C)cc2C(F)(F)F)CC1	1.2
CC(C)N1CCC[C@H]1C(=O)N1CCC(CCOc2ncc(-c3nc(C#N)nc4c3ncn4C)cc2C(F)(F)F)CC1	2.1
CN1CCC[C@H]1C(=O)N1CCC(CCOc2ccc(-c3nc(C#N)nc4c3ccn4C3COC3)cc2C(F)(F)F)CC1	3.3
CCN1CCCC(COc2ccc(-c3nc(C#N)nc4c3ccn4C)cc2C(F)(F)F)C1 (centres undefined)	3
Cn1ccc2c(-c3ccc(OCC4CCCNC4)c(C(F)(F)F)c3)nc(C#N)nc21 (centres undefined)	3.1
Cn1cnc2c(-c3ccc(OCCC4CCNCC4)c(C(F)(F)F)c3)nc(C#N)nc21	1.7
CCOc1ccc(-c2nc(C#N)nc3c2ccn3CC(=O)NC2CCN(C)CC2)cc1C(F)(F)F	2.9
CCN1CCC(COc2ccc(-c3nc(C#N)nc4c3ccn4CC3CCOC3)cc2C(F)(F)F)CC1 (centres undefined)	2.8
CN1CCC[C@@H]1C(=O)N1CC[C@@H](OCCOc2ncc(-c3nc(C#N)nc4c3ccn4C)cc2C(F)(F)F)C1	2.4
Cn1cnc2c(-c3ccc(OCCC4CCN(CCO)CC4)c(C(F)(F)F)c3)nc(C#N)nc21	0.76
CN(C)C(=O)CN1CCC(CCOc2ccc(-c3nc(C#N)nc4c3ccn4CCO)cc2C(F)(F)F)CC1	1.9
CCN1CCC(CCOc2ncc(-c3nc(C#N)nc4c3ccn4CC(=O)N3CCOCC3)cc2C(F)(F)F)CC1	2.4
Cn1cnc2c(-c3ccc(OCCC4CCN(C(=O)CO)CC4)c(C(F)(F)F)c3)nc(C#N)nc21	6.1
CCN1CCC(CCOc2ncc(-c3nc(C#N)nc4c3ccn4C)cc2C(F)(F)F)CC1	1.9
CN1CCC[C@H]1C(=O)N1CCC(CCOc2ccc(-c3nc(C#N)nc4c3ccn4CC3CCOC3)cc2C#N)CC1 (some centres undefined)	7.8
Cn1ccc2c(-c3ccc(OCC4(C)CCNCC4)c(C(F)(F)F)c3)nc(C#N)nc21	3.6
CN1CCC[C@H]1C(=O)N1CC(COc2ccc(-c3nc(C#N)nc4c3ccn4C)cc2C(F)(F)F)C1	2.1
Cn1cnc2c(-c3cnc(OCCC4CCNCC4)c(C(F)(F)F)c3)nc(C#N)nc21	1.4
Cn1ccc2c(-c3cnc(OCCC4CCNCC4)c(C(F)(F)F)c3)nc(C#N)nc21	2.5

Compound	IC50 [nM]
Cn1ccc2c(-c3ccc(OCCC4CCNC4)c(C(F)(F)F)c3)nc(C#N)nc21 (centres undefined)	1.3
N#Cc1nc(-c2ccc(OCCC3CCNCC3)c(C(F)(F)F)c2)c2ccn(C3CCOC3)c2n1 (centres undefined)	2.8
CN1CCC(C(=O)N2CCC(CCOc3ccc(-c4nc(C#N)nc5c4ncn5C)cc3C(F)(F)F)CC2)C1 (centres undefined)	2.3
CN1CCC(N(C)C(=O)Cn2ccc3c(-c4ccc(OCCC5CCOCC5)c(C(F)(F)F)c4)nc(C#N)nc32)C1 (centres undefined)	2.2
CCN1CCC(CCOc2ccc(-c3nc(C#N)nc4c3ccn4CC3CCOC3)cc2C(F)(F)F)CC1 (centres undefined)	3.9
Cn1ccc2c(-c3cnc(OCC4CCN(C(=O)C5CCN(CC(C)(C)O)CC5)CC4)c(C(F)(F)F)c3)nc(C#N)nc21	2.1
Cn1c(C(F)(F)F)nc2c(-c3cnc(OCCC4CCNCC4)c(C(F)(F)F)c3)nc(C#N)nc21	3.3
N#Cc1nc(-c2ccc(OCCC3CCN(CCO)CC3)c(C(F)(F)F)c2)c2ccn(CC3CCOC3)c2n1 (centres undefined)	3.1
CCN1CCC(OCCOc2ccc(-c3nc(C#N)nc4c3ccn4C)cc2C(F)(F)F)CC1	2
CCN1CCN(C(=O)COc2ccc(-c3nc(C#N)nc4c3ncn4C)cc2C(F)(F)F)CC1	2.6
CN(C)C(=O)CN1CCCC(COc2ccc(-c3nc(C#N)nc4c3ccn4C)cc2C(F)(F)F)C1 (centres undefined)	4
N#Cc1nc(-c2cnc(OCCC3CCNCC3)c(C(F)(F)F)c2)c2ccn(CC3CCOC3)c2n1 (centres undefined)	3.4
Cn1ccc2c(-c3cnc(OCCC4CCCNC4)c(C(F)(F)F)c3)nc(C#N)nc21 (centres undefined)	2.7
CN1CCC[C@H]1C(=O)N1CCCC(COc2ccc(-c3nc(C#N)nc4c3ccn4C)cc2C(F)(F)F)C1 (some centres undefined)	3.6
CCN1CCC(CCOc2ccc(-c3nc(C#N)nc4c3ccn4CCO)cc2C(F)(F)F)CC1	2.3
Cn1ccc2c(-c3ccc(OCCC4CCN(C(C)(C)C)CC4)c(C(F)(F)F)c3)nc(C#N)nc21	2
CCN1CCC(CCOc2ccc(-c3nc(C#N)nc4c3ccn4C3COC3)cc2C(F)(F)F)CC1	2.9
N#Cc1nc(-c2ccc(OCCC3CCNCC3)c(C(F)(F)F)c2)c2ccn(C3CCOCC3)c2n1	2.6
Cn1cnc2c(-c3ccc(OCCC4CCN(CC(=O)N5CCCC5)CC4)c(C(F)(F)F)c3)nc(C#N)nc21	1.6
Cn1cnc2c(-c3ccc(OCC(=O)N4CCNCC4)c(C(F)(F)F)c3)nc(C#N)nc21	8.9
Cn1ccc2c(-c3ccc(OCCOC4CCNCC4)c(C(F)(F)F)c3)nc(C#N)nc21	2.1
